Test results published in ChEMBL document CHEMBL3885881, “DrugMatrix”.

Organism: Rattus norvegicus
Experiment: DrugMatrix - Regimen: Daily Repeat
Format: toxicity, organism-based, Sprague-Dawley
Set-up: regimen Daily Repeat, gender Male, age 6-8 weeks
Conditions: in vivo, po, 1100 mg/kg, route oral GAVAGE, dose level High, vehicle .5 % CMC; for ABSOLUTE BASOPHIL / ABSOLUTE EOSINOPHIL / ABSOLUTE LYMPHOCYTE / ABSOLUTE MONOCYTE / ABSOLUTE SEGMENTED NEUTROPHIL / BASOPHIL / EOSINOPHIL / ERYTHROCYTE COUNT / HEMATOCRIT / HEMOGLOBIN / LEUKOCYTE COUNT / LYMPHOCYTE / MEAN CORPUSCULAR HEMOGLOBIN / MEAN CORPUSCULAR HEMOGLOBIN CONCENTRATION / MEAN CORPUSCULAR VOLUME / MONOCYTE / NEUTROPHIL / NUCLEATED RED BLOOD CELLS / PLATELET COUNT: tissue Blood; for ALANINE AMINOTRANSFERASE / ALBUMIN / ALKALINE PHOSPHATASE / ASPARTATE AMINOTRANSFERASE / BLOOD UREA NITROGEN / CARBON DIOXIDE / CHLORIDE / CHOLESTEROL / CREATINE PHOSPHOKINASE / CREATININE / GLUCOSE / LACTATE DEHYDROGENASE / LIPASE / PHOSPHORUS / POTASSIUM / SODIUM / TOTAL BILIRUBIN / URIC ACID: tissue Plasma

COc1cc(NS(=O)(=O)c2ccc(N)cc2)nc(OC)n1 [SULFADIMETHOXINE]
ABSOLUTE BASOPHIL (72 h, time 3 day): 0 CELLS/uL | ABSOLUTE EOSINOPHIL (72 h, time 3 day): 176 CELLS/uL | ABSOLUTE LYMPHOCYTE (72 h, time 3 day): 8678 CELLS/uL | ABSOLUTE MONOCYTE (72 h, time 3 day): 307.33 CELLS/uL | ABSOLUTE SEGMENTED NEUTROPHIL (72 h, time 3 day): 1105.33 CELLS/uL | BASOPHIL (72 h, time 3 day): 0% | EOSINOPHIL (72 h, time 3 day): 1.67% | ERYTHROCYTE COUNT (72 h, time 3 day): 5.56 x10E6/uL | HEMATOCRIT (72 h, time 3 day): 35.03% | HEMOGLOBIN (72 h, time 3 day): 13.43 G/DL | LEUKOCYTE COUNT (72 h, time 3 day): 10.27 x10E3/uL | LYMPHOCYTE (72 h, time 3 day): 84.67% | MEAN CORPUSCULAR HEMOGLOBIN (72 h, time 3 day): 24.13 pg | MEAN CORPUSCULAR HEMOGLOBIN CONCENTRATION (72 h, time 3 day): 38.37 G/DL | MEAN CORPUSCULAR VOLUME (72 h, time 3 day): 62.93 fL | MONOCYTE (72 h, time 3 day): 3% | NEUTROPHIL (72 h, time 3 day): 10.67% | NUCLEATED RED BLOOD CELLS (72 h, time 3 day): 0 /100WBC | PLATELET COUNT (72 h, time 3 day): 1279 x10E3/uL | ALANINE AMINOTRANSFERASE (72 h, time 3 day): 62.67 u/L | ALBUMIN (72 h, time 3 day): 4.6 G/DL | ALKALINE PHOSPHATASE (72 h, time 3 day): 393.67 u/L | ASPARTATE AMINOTRANSFERASE (72 h, time 3 day): 75.67 u/L | BLOOD UREA NITROGEN (72 h, time 3 day): 18 mg/dL | CARBON DIOXIDE (72 h, time 3 day): 27.67 mmol/L | CHLORIDE (72 h, time 3 day): 102.67 MEQ/L | CHOLESTEROL (72 h, time 3 day): 67.67 mg/dL | CREATINE PHOSPHOKINASE (72 h, time 3 day): 189.67 u/L | CREATININE (72 h, time 3 day): 0.32 mg/dL | GLUCOSE (72 h, time 3 day): 153.33 mg/dL | LACTATE DEHYDROGENASE (72 h, time 3 day): 129.33 u/L | LIPASE (72 h, time 3 day): 9.33 u/L | PHOSPHORUS (72 h, time 3 day): 12.17 mg/dL | POTASSIUM (72 h, time 3 day): 6.03 MEQ/L | SODIUM (72 h, time 3 day): 145.53 MEQ/L | TOTAL BILIRUBIN (72 h, time 3 day): 0.17 mg/dL | URIC ACID (72 h, time 3 day): 1.37 mg/dL | ABSOLUTE BASOPHIL (120 h, time 5 day): 0 CELLS/uL | ABSOLUTE EOSINOPHIL (120 h, time 5 day): 186.33 CELLS/uL | ABSOLUTE LYMPHOCYTE (120 h, time 5 day): 11316.33 CELLS/uL | ABSOLUTE MONOCYTE (120 h, time 5 day): 266.33 CELLS/uL | ABSOLUTE SEGMENTED NEUTROPHIL (120 h, time 5 day): 1431 CELLS/uL | BASOPHIL (120 h, time 5 day): 0% | EOSINOPHIL (120 h, time 5 day): 1.33% | ERYTHROCYTE COUNT (120 h, time 5 day): 5.62 x10E6/uL | HEMATOCRIT (120 h, time 5 day): 35.53% | HEMOGLOBIN (120 h, time 5 day): 13.53 G/DL | LEUKOCYTE COUNT (120 h, time 5 day): 13.2 x10E3/uL | LYMPHOCYTE (120 h, time 5 day): 86% | MEAN CORPUSCULAR HEMOGLOBIN (120 h, time 5 day): 24.1 pg | MEAN CORPUSCULAR HEMOGLOBIN CONCENTRATION (120 h, time 5 day): 38.1 G/DL | MEAN CORPUSCULAR VOLUME (120 h, time 5 day): 63.17 fL | MONOCYTE (120 h, time 5 day): 2% | NEUTROPHIL (120 h, time 5 day): 10.67% | NUCLEATED RED BLOOD CELLS (120 h, time 5 day): 0 /100WBC | PLATELET COUNT (120 h, time 5 day): 1313.67 x10E3/uL | ALANINE AMINOTRANSFERASE (120 h, time 5 day): 48.67 u/L | ALBUMIN (120 h, time 5 day): 4.57 G/DL | ALKALINE PHOSPHATASE (120 h, time 5 day): 294.67 u/L | ASPARTATE AMINOTRANSFERASE (120 h, time 5 day): 97 u/L | BLOOD UREA NITROGEN (120 h, time 5 day): 21.67 mg/dL | CARBON DIOXIDE (120 h, time 5 day): 25.33 mmol/L | CHLORIDE (120 h, time 5 day): 102.33 MEQ/L | CHOLESTEROL (120 h, time 5 day): 65 mg/dL | CREATINE PHOSPHOKINASE (120 h, time 5 day): 679 u/L | CREATININE (120 h, time 5 day): 0.26 mg/dL | GLUCOSE (120 h, time 5 day): 151.67 mg/dL | LACTATE DEHYDROGENASE (120 h, time 5 day): 445 u/L | LIPASE (120 h, time 5 day): 8.67 u/L | PHOSPHORUS (120 h, time 5 day): 11.87 mg/dL | POTASSIUM (120 h, time 5 day): 5.23 MEQ/L | SODIUM (120 h, time 5 day): 144.1 MEQ/L | TOTAL BILIRUBIN (120 h, time 5 day): 0.1 mg/dL | URIC ACID (120 h, time 5 day): 1.4 mg/dL
